Patent US8772480B2, “Inhibitors of PI3 kinase and/or mTOR” (priority 2009, dated 2014)

Experiments:
Type in all cases: biochemical
[1] = system: ProfilerPro Kinase Selectivity Assay Kit kinases; details: 1 μM compound concentration
Method: (§1) Compounds were profiled using a LabChip® EZ Reader II platform and a ProfilerPro Kinase Selectivity Assay Kit (Caliper Lifesciences Inc., Hopkinton, Mass.). Compounds were tested at a concentration of 1 M in duplicate, with mean data reported as percent of control (POC).

[2] = target: ProfilerPro Kinase Selectivity Assay Kit kinases (Homo sapiens, UniProt P49841); details: GSK3 beta; 1 μM compound concentration
Method: as §1

[3] = target: ProfilerPro Kinase Selectivity Assay Kit kinases (Homo sapiens, UniProt O00141); details: SGK1; 1 μM compound concentration
Method: as §1

[4] = target: ProfilerPro Kinase Selectivity Assay Kit kinases (Homo sapiens, UniProt Q13627); details: DYRK1a; 1 μM compound concentration
Method: as §1

[5] = target: ProfilerPro Kinase Selectivity Assay Kit kinases (Homo sapiens, UniProt O14757); details: CHK1; 1 μM compound concentration
Method: as §1

[6] = target: ProfilerPro Kinase Selectivity Assay Kit kinases (Homo sapiens, UniProt P07948); details: LYN; 1 μM compound concentration
Method: as §1

[7] = target: ProfilerPro Kinase Selectivity Assay Kit kinases (Homo sapiens, UniProt P23443); details: p70S6K; 1 μM compound concentration
Method: as §1

[8] = target: ProfilerPro Kinase Selectivity Assay Kit kinases (Homo sapiens, UniProt Q16566); details: CAMK4; 1 μM compound concentration
Method: as §1

[9] = target: ProfilerPro Kinase Selectivity Assay Kit kinases (Homo sapiens, UniProt Q9BZL6); details: PKD2; 1 μM compound concentration
Method: as §1

[10] = target: ProfilerPro Kinase Selectivity Assay Kit kinases (Homo sapiens, UniProt P36888); details: FLT3; 1 μM compound concentration
Method: as §1

[11] = target: ProfilerPro Kinase Selectivity Assay Kit kinases (Homo sapiens, UniProt P04049); details: cRAF; 1 μM compound concentration
Method: as §1

[12] = target: ProfilerPro Kinase Selectivity Assay Kit kinases (Homo sapiens, UniProt P27361); details: ERK1; 1 μM compound concentration
Sequence of ProfilerPro Kinase Selectivity Assay Kit kinases (Homo sapiens, UniProt P27361) (P27361 2-379 limits assumed): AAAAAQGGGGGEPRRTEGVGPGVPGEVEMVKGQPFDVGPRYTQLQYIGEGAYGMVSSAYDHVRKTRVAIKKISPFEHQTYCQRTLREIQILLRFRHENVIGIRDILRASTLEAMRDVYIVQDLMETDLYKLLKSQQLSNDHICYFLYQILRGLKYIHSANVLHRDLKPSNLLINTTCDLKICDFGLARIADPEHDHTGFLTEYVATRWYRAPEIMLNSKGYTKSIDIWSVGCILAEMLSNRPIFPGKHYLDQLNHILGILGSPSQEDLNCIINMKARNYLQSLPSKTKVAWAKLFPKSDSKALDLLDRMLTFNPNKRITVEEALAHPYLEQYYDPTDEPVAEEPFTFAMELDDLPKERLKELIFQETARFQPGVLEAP
Method: as §1

[13] = target: ProfilerPro Kinase Selectivity Assay Kit kinases (Homo sapiens, UniProt O75116); details: ROCK2; 1 μM compound concentration
Method: as §1

[14] = target: ProfilerPro Kinase Selectivity Assay Kit kinases (Homo sapiens, UniProt P49137); details: MAPKAPK2; 1 μM compound concentration
Method: as §1

[15] = target: ProfilerPro Kinase Selectivity Assay Kit kinases (Homo sapiens, UniProt P24941); details: CDK2; 1 μM compound concentration
Method: as §1

[16] = target: ProfilerPro Kinase Selectivity Assay Kit kinases (Homo sapiens, UniProt P06239); details: LCK; 1 μM compound concentration
Method: as §1

[17] = target: ProfilerPro Kinase Selectivity Assay Kit kinases (Homo sapiens, UniProt O75582); details: MSK1; 1 μM compound concentration
Method: as §1

[18] = target: ProfilerPro Kinase Selectivity Assay Kit kinases (Homo sapiens, UniProt Q8IW41); details: PRAK; 1 μM compound concentration
Method: as §1

[19] = target: ProfilerPro Kinase Selectivity Assay Kit kinases (Homo sapiens, UniProt P31749); details: AKT1; 1 μM compound concentration
Method: as §1

[20] = target: ProfilerPro Kinase Selectivity Assay Kit kinases (Homo sapiens, UniProt Q16539); details: p38 alpha; 1 μM compound concentration
Method: as §1

[21] = target: ProfilerPro Kinase Selectivity Assay Kit kinases (Homo sapiens, UniProt Q13976); details: PKGa2; 1 μM compound concentration
Sequence of ProfilerPro Kinase Selectivity Assay Kit kinases (Homo sapiens, UniProt Q13976) (Q13976 2-671 limits assumed): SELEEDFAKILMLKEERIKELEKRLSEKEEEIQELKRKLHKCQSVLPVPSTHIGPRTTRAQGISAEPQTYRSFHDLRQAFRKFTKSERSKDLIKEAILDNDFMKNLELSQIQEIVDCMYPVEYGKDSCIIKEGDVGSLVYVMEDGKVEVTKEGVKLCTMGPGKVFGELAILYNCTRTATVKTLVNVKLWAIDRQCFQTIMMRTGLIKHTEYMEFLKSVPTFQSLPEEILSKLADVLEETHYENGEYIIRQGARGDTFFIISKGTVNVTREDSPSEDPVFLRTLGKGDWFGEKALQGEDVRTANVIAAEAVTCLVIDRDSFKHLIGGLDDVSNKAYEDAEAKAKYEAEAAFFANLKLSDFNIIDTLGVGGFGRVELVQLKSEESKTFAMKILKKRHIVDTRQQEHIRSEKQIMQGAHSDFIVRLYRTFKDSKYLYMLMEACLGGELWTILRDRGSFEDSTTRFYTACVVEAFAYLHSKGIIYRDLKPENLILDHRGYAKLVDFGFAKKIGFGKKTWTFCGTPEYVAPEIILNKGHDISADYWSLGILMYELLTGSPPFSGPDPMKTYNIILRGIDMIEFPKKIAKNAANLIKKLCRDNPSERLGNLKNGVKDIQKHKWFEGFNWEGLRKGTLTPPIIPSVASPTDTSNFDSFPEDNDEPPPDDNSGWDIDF
Method: as §1

[22] = target: ProfilerPro Kinase Selectivity Assay Kit kinases (Homo sapiens, UniProt P00519); details: ABL; 1 μM compound concentration
Method: as §1

[23] = target: ProfilerPro Kinase Selectivity Assay Kit kinases (Homo sapiens, UniProt P11362); details: FGFR1; 1 μM compound concentration
Sequence of ProfilerPro Kinase Selectivity Assay Kit kinases (Homo sapiens, UniProt P11362) (P11362 22-822 limits assumed): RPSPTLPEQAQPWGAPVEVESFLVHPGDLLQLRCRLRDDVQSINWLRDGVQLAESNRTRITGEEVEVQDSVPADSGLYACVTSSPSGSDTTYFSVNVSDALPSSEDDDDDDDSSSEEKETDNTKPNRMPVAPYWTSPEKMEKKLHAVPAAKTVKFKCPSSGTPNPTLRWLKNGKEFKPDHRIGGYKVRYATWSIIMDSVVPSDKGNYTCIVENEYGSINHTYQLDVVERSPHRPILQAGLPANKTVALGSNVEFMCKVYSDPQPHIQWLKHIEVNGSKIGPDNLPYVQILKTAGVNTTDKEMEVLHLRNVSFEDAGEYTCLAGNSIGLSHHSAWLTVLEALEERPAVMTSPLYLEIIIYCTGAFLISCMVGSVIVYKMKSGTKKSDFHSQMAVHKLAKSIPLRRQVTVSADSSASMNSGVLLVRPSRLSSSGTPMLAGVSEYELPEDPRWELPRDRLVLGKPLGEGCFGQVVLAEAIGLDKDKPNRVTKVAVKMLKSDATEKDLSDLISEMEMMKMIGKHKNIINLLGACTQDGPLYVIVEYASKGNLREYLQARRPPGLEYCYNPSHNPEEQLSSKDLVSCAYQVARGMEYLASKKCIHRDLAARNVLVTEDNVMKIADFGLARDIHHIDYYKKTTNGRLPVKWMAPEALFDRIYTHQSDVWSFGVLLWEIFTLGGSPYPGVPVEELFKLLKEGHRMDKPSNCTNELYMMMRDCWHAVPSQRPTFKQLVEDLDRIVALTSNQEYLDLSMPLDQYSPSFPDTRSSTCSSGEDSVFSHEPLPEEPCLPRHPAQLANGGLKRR
Method: as §1

[24] = target: ProfilerPro Kinase Selectivity Assay Kit kinases (Homo sapiens, UniProt P08581); details: cMET; 1 μM compound concentration
Sequence of ProfilerPro Kinase Selectivity Assay Kit kinases (Homo sapiens, UniProt P08581) (P08581 25-1390 limits assumed): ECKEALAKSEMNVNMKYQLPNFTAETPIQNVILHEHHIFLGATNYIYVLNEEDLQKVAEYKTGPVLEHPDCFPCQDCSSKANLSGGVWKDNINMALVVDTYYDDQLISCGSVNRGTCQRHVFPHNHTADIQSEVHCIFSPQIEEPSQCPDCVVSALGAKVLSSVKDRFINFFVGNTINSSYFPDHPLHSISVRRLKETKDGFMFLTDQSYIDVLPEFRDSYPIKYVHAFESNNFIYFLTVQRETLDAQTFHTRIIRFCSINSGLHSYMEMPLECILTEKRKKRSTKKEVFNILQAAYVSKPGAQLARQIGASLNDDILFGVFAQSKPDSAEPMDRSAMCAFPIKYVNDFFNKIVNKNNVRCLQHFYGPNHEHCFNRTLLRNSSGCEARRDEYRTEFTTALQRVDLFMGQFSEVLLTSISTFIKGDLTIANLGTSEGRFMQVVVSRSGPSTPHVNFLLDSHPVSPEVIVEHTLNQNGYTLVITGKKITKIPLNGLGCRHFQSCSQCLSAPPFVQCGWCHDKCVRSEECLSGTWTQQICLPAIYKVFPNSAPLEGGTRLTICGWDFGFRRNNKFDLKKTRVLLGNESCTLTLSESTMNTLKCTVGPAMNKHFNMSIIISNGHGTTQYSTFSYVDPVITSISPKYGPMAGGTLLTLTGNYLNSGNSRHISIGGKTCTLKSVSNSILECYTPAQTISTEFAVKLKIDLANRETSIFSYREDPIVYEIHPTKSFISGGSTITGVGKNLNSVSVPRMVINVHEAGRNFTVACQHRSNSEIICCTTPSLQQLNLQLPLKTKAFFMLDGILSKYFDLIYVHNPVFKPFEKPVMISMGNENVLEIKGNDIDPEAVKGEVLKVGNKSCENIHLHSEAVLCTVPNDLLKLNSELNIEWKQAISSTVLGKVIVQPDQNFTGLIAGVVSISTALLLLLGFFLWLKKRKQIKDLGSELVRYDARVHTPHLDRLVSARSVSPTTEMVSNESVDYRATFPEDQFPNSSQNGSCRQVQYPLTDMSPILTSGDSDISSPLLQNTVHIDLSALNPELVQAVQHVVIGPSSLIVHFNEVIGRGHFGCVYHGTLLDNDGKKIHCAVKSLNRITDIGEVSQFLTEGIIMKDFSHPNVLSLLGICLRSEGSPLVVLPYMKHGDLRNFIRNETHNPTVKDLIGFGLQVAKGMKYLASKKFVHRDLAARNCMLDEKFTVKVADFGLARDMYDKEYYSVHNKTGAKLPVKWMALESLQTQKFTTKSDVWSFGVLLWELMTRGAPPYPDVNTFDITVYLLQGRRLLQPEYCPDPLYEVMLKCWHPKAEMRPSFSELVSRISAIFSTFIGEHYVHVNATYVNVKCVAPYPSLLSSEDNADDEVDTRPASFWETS
Method: as §1

[25] = target: ProfilerPro Kinase Selectivity Assay Kit kinases (Homo sapiens, UniProt Q9P0L2); details: MARK1; 1 μM compound concentration
Method: as §1

[26] = target: ProfilerPro Kinase Selectivity Assay Kit kinases (Homo sapiens, UniProt P35968); details: KDR; 1 μM compound concentration
Sequence of ProfilerPro Kinase Selectivity Assay Kit kinases (Homo sapiens, UniProt P35968) (P35968 20-1356 limits assumed): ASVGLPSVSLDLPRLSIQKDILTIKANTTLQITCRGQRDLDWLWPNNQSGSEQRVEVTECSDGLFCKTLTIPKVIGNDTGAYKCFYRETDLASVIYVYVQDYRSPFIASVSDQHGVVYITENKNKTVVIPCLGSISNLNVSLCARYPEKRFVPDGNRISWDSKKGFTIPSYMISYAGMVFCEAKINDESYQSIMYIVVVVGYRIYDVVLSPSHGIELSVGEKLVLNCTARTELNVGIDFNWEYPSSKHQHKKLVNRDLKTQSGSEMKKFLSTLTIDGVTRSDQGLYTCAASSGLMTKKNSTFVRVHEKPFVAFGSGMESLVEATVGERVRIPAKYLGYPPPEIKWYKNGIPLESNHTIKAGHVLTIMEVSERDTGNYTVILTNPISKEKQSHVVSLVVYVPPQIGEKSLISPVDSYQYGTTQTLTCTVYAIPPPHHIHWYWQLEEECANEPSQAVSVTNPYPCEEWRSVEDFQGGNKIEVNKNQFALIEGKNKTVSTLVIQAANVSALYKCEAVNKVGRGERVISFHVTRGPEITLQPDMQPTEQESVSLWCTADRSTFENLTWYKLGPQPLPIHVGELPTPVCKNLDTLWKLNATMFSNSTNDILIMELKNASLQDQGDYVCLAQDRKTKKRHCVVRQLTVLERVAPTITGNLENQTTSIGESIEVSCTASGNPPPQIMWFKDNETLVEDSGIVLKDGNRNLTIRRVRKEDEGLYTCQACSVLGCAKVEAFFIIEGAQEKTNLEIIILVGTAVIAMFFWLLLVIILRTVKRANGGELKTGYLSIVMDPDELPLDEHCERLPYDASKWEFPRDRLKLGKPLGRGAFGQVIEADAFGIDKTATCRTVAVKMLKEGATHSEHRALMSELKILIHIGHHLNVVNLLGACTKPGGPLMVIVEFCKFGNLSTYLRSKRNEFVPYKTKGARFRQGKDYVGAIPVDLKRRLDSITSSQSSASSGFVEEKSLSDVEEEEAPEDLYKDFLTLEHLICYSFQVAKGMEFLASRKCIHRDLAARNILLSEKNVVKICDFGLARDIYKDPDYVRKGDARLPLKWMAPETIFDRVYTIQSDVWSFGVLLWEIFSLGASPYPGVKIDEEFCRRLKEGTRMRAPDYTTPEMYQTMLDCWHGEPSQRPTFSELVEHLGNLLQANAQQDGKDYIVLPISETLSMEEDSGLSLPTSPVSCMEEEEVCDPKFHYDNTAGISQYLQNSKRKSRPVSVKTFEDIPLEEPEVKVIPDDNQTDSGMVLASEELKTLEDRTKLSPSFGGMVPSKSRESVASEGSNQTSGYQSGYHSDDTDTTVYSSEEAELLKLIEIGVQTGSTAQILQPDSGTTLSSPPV
Method: as §1

[27] = target: ProfilerPro Kinase Selectivity Assay Kit kinases (Homo sapiens, UniProt P28482); details: ERK2; 1 μM compound concentration
Sequence of ProfilerPro Kinase Selectivity Assay Kit kinases (Homo sapiens, UniProt P28482) (P28482 2-360 limits assumed): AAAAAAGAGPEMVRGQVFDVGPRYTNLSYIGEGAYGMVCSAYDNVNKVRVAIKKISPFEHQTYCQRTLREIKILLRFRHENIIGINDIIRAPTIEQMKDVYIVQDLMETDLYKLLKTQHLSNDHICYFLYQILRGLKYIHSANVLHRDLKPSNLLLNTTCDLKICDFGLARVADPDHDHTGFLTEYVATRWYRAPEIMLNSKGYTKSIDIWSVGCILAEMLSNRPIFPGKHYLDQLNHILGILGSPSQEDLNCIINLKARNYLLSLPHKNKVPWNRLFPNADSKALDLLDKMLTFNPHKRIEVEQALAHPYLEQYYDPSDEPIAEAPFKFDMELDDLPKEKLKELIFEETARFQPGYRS
Method: as §1

[28] = target: ProfilerPro Kinase Selectivity Assay Kit kinases (Homo sapiens, UniProt O96017); details: CHK2; 1 μM compound concentration
Method: as §1

[29] = target: ProfilerPro Kinase Selectivity Assay Kit kinases (Homo sapiens, UniProt Q06187); details: BTK; 1 μM compound concentration
Method: as §1

[30] = target: ProfilerPro Kinase Selectivity Assay Kit kinases (Homo sapiens, UniProt Q9P1W9); details: PIM2; 1 μM compound concentration
Method: as §1

[31] = target: ProfilerPro Kinase Selectivity Assay Kit kinases (Homo sapiens, UniProt Q05513); details: PKC zeta; 1 μM compound concentration
Method: as §1

SMILES: COc1ccc(Nc2ncc(CN3CCN(C(C)=O)CC3)cc2-c2nc(C)nc3[nH]cnc23)cn1 [Example 89, 1-(4-((6-(6-methoxypyridin-3-ylamino)-5-(2-methyl-9H-purin-6-yl)pyridin-3-yl)methyl)piperazin-1-yl)ethanone]
- POC (Percent of control) AMPK [1]: 91 POC
- POC (Percent of control) CAMK2 [1]: 108 POC
- POC (Percent of control) PKC beta2 [1]: 94 POC
- POC (Percent of control) TAK1 [1]: 93 POC
- POC (Percent of control) GSK3 beta [2]: 100 POC
- POC (Percent of control) SGK1 [3]: 92 POC
- POC (Percent of control) DYRK1a [4]: 88 POC
- POC (Percent of control) CHK1 [5]: 99 POC
- POC (Percent of control) LYN [6]: 96 POC
- POC (Percent of control) p70S6K [7]: 89 POC
- POC (Percent of control) CAMK4 [8]: 109 POC
- POC (Percent of control) PKD2 [9]: 100 POC
- POC (Percent of control) FLT3 [10]: 95 POC
- POC (Percent of control) cRAF [11]: 99 POC
- POC (Percent of control) ERK1 [12]: 100 POC
- POC (Percent of control) ROCK2 [13]: 101 POC
- POC (Percent of control) MAPKAPK2 [14]: 100 POC
- POC (Percent of control) CDK2 [15]: 96 POC
- POC (Percent of control) LCK [16]: 101 POC
- POC (Percent of control) MSK1 [17]: 91 POC
- POC (Percent of control) PRAK [18]: 99 POC
- POC (Percent of control) AKT1 [19]: 102 POC
- POC (Percent of control) p38 alpha [20]: 100 POC
- POC (Percent of control) PKGa2 [21]: 87 POC
- POC (Percent of control) ABL [22]: 107 POC
- POC (Percent of control) FGFR1 [23]: 97 POC
- POC (Percent of control) cMET [24]: 102 POC
- POC (Percent of control) MARK1 [25]: 92 POC
- POC (Percent of control) KDR [26]: 92 POC
- POC (Percent of control) ERK2 [27]: 106 POC
- POC (Percent of control) CHK2 [28]: 97 POC
- POC (Percent of control) BTK [29]: 102 POC
- POC (Percent of control) PIM2 [30]: 93 POC
- POC (Percent of control) PKC zeta [31]: 109 POC

SMILES: COc1ccc(Nc2ncc(Cc3ccc(S(C)(=O)=O)cc3)cc2-c2nc(C)nc3[nH]cnc23)cn1 [Example 103, N-(6-methoxypyridin-3-yl)-3-(2-methyl-9H-purin-6-yl)-5-(4-(methylsulfonyl)benzyl)pyridin-2-amine]
- POC (Percent of control) AMPK [1]: 102 POC
- POC (Percent of control) CAMK2 [1]: 95 POC
- POC (Percent of control) PKC beta2 [1]: 100 POC
- POC (Percent of control) TAK1 [1]: 115 POC
- POC (Percent of control) GSK3 beta [2]: 96 POC
- POC (Percent of control) SGK1 [3]: 96 POC
- POC (Percent of control) DYRK1a [4]: 83 POC
- POC (Percent of control) CHK1 [5]: 107 POC
- POC (Percent of control) LYN [6]: 97 POC
- POC (Percent of control) p70S6K [7]: 109 POC
- POC (Percent of control) CAMK4 [8]: 95 POC
- POC (Percent of control) PKD2 [9]: 87 POC
- POC (Percent of control) FLT3 [10]: 85 POC
- POC (Percent of control) cRAF [11]: 100 POC
- POC (Percent of control) ERK1 [12]: 101 POC
- POC (Percent of control) ROCK2 [13]: 106 POC
- POC (Percent of control) MAPKAPK2 [14]: 100 POC
- POC (Percent of control) CDK2 [15]: 100 POC
- POC (Percent of control) LCK [16]: 92 POC
- POC (Percent of control) MSK1 [17]: 101 POC
- POC (Percent of control) PRAK [18]: 103 POC
- POC (Percent of control) AKT1 [19]: 94 POC
- POC (Percent of control) p38 alpha [20]: 92 POC
- POC (Percent of control) PKGa2 [21]: 98 POC
- POC (Percent of control) ABL [22]: 95 POC
- POC (Percent of control) FGFR1 [23]: 100 POC
- POC (Percent of control) cMET [24]: 94 POC
- POC (Percent of control) MARK1 [25]: 131 POC
- POC (Percent of control) KDR [26]: 91 POC
- POC (Percent of control) ERK2 [27]: 94 POC
- POC (Percent of control) CHK2 [28]: 94 POC
- POC (Percent of control) BTK [29]: 97 POC
- POC (Percent of control) PIM2 [30]: 96 POC
- POC (Percent of control) PKC zeta [31]: 98 POC
